16 compounds from patent publication US10538498B2, “1,3,4-oxadiazole sulfonamide derivative compounds as histone deacetylase 6 inhibitor, and the pharmaceutical composition comprising the same” (Chong Kun Dang Pharmaceutical Corp., priority 2015, dated 2020) can be followed below.

One assay concerns the target T1, human recombinant HDAC1 (Homo sapiens, UniProt Q13547).
T1 construct: purchased Enzo Life Science BML-SE456
The experiment in a line: HDAC1 enzyme activity inhibition assay (HDAC Fluorimetric Drug Discovery Kit). To be noted: 0.3 μg enzyme, 10 μM substrate, 30° C., 60 minutes. It is filed as biochemical. As for the experimental part: In order to examine the HDAC6 selectivity of the compounds of formula I of the present invention by HDAC1 and HDAC6 enzymatic activity inhibition assays, an experiment was performed using a conventional substance as a control.
HDAC enzyme activity was measured using a HDAC Fluorimetric Drug Discovery Kit (BML-AK511, 516, Enzo Life Science). For the HDAC1 enzyme activity test, human recombinant HDAC1 (BML-SE456) was used as an enzyme source, and Fluor de Lys®-“SIRT1 (BNL-KI177) was used as a substrate. A 5-fold dilution of the compound was seeded into a 96-well plate, and then 0.3 μg of the enzyme and 10 μM of the substrate were added to each well of the plate and allowed to react at 30° C. for 60 minutes. Then, Fluor de Lys®-Developer II (BML-KI176) was added thereto and allowed to react for 30 minutes, after which the fluorescence value (Ex 360, Em 460) was measured using a multi-plate reader (Flexstation 3, Molecular Device). The HDAC6 enzyme was tested using human recombinant HDAC6 (382180) (Calbiochem) according to the same protocol as the HDAC1 enzyme activity test method. Based on the resulting values, each IC50 value was calculated using GraphPad Prism4.0 program.

The target in a further assay is T2, human recombinant HDAC6 (Homo sapiens, UniProt Q9UBN7).
T2 construct: purchased Calbiochem 382180
T2 sequence (Q9UBN7 1-1215): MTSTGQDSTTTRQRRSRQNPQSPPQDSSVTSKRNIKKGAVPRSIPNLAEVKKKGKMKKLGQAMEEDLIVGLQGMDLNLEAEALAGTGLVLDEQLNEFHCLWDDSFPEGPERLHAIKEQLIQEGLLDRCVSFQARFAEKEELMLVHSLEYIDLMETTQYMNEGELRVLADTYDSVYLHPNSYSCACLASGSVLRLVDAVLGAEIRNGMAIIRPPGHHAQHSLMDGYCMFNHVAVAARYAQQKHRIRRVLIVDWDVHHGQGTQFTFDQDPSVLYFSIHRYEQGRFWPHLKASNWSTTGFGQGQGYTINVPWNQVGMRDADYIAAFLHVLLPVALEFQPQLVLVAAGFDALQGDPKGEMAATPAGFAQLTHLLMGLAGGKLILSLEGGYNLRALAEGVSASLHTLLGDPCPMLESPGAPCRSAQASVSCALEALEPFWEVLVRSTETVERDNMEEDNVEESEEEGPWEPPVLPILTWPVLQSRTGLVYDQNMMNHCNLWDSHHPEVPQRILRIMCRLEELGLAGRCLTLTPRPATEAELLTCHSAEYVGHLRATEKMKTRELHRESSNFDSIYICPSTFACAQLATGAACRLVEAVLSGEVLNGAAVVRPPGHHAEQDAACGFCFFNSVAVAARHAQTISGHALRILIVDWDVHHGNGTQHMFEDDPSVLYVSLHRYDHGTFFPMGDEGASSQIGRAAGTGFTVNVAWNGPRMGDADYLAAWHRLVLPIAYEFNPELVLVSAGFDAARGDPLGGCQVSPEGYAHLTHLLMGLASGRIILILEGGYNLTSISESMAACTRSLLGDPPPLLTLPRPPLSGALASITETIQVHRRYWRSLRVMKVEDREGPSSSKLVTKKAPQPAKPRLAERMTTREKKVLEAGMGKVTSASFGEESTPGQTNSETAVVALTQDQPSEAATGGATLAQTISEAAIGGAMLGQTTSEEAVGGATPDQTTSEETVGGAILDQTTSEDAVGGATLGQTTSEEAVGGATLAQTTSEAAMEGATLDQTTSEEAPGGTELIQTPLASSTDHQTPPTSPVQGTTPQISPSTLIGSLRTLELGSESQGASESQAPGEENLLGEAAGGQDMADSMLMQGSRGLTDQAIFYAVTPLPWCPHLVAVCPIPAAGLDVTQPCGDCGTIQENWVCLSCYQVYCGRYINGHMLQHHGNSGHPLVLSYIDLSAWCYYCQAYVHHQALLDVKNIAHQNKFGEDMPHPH
The experiment in a line: HDAC6 enzyme activity inhibition assay (HDAC Fluorimetric Drug Discovery Kit). The class given is biochemical. To be noted: for HDAC6 selectivity (fold): HDAC1 vs HDAC6; for IC50: same protocol as the HDAC1 enzyme activity test. The method, boiled down:
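5-fold compound dilutions + 0.3 μg enzyme + 10 μM Fluor de Lys-SIRT1 substrate, 60 min, 30° C; Developer II 30 min; fluorescence Ex 360/Em 460; IC50 by curve fit.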

T1 sequence (Q13547 whole entry): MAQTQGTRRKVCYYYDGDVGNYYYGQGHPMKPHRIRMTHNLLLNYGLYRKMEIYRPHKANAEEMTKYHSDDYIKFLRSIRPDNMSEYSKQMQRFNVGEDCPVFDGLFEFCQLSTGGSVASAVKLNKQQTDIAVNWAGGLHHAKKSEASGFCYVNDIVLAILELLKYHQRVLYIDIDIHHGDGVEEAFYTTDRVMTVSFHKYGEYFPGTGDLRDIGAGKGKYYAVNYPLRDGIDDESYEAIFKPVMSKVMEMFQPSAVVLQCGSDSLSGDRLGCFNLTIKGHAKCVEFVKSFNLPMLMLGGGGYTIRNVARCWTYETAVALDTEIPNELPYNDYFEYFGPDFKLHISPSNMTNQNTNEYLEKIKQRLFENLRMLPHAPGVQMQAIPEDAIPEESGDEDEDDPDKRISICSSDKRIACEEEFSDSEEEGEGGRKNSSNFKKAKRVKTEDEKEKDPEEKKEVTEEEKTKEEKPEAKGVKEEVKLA

In general, IC50 refers to the concentration that gives 50% inhibition. Consider `O=S(=O)(CCN1CCCC1)N(Cc1ccc(-c2nnc(C(F)F)o2)cc1F)c1ccc(F)c(Cl)c1` [Compound 11514, N-(3-chloro-4-fluorophenyl)-N-(4-(5-(difluoromethyl)-1,3,4-oxadiazol-2-yl)-2-fluorobenzyl)-2-(pyrrolidin-1-yl)ethane-1-sulfonamide], for which the 50% inhibitory concentration (IC50) on human recombinant HDAC1 was determined as 40.3 µM; at human recombinant HDAC6 it was 0.043 µM. The “HDAC6 selectivity (fold)” value at human recombinant HDAC6 is on record as 938 fold.
In the case of `CS(=O)(=O)N1CC(N2CCC(S(=O)(=O)N(Cc3ccc(-c4nnc(C(F)F)o4)cn3)c3ccc(F)c(Cl)c3)CC2)C1` [Compound 11503, N-(3-chloro-4-fluorophenyl)-N-((5-(5-(difluoromethyl)-1,3,4-oxadiazol-2-yl)pyridin-2-yl)methyl)-1-(1-(methylsulfonyl)azetidin-3-yl)piperidine-4-sulfonamide], the IC50 on human recombinant HDAC1 is 71.9 µM. Also, at human recombinant HDAC6, the “HDAC6 selectivity (fold)” value is 4792 fold and the 50% inhibitory concentration (IC50) stood at 0.015 µM.
For `Cc1cccc(N(Cc2ccc(-c3nnc(C(F)F)o3)cn2)S(=O)(=O)C2CCN([C@H]3CC[C@@H](F)CC3)CC2)c1` [Compound 11689, N-((5-(5-(difluoromethyl)-1,3,4-oxadiazol-2-yl)pyridin-2-yl)methyl)-1-((1s,4s)-4-fluorocyclohexyl)-N-(m-tolyl)piperidine-4-sulfonamide], the IC50 was 20 µM on human recombinant HDAC1 and 0.0466 µM at human recombinant HDAC6. Moreover, the “HDAC6 selectivity (fold)” value on human recombinant HDAC6 is on record as 429 fold.
For the compound `CN1CCC(S(=O)(=O)N(Cc2ccc(-c3nnc(C(F)F)o3)cc2)c2ccccc2)CC1` [Compound 11637, N-(4-(5-(difluoromethyl)-1,3,4-oxadiazol-2-yl)benzyl)-1-methyl-N-phenylpiperidine-4-sulfonamide], at human recombinant HDAC1, the IC50 amounted to 67 µM. Besides, at human recombinant HDAC6, the “HDAC6 selectivity (fold)” value is on record as 3349 fold and the IC50 is 0.02 µM.
Take `Cc1cccc(N(Cc2ccc(-c3nnc(C(F)F)o3)cn2)S(=O)(=O)C2CCN(C3CCC(F)(F)CC3)CC2)c1` [Compound 11687, 1-(4,4-difluorocyclohexyl)-N-((5-(5-(difluoromethyl)-1,3,4-oxadiazol-2-yl)pyridin-2-yl)methyl)-N-(m-tolyl)piperidine-4-sulfonamide]: on human recombinant HDAC1, the half-maximal inhibitory concentration (IC50) turned out to be 79.1 µM. For the same compound, on human recombinant HDAC6, the “HDAC6 selectivity (fold)” value is recorded as 741 fold and the IC50 is 0.107 µM.
`O=S(=O)(C1CCN(C2COC2)CC1)N(Cc1ccc(-c2nnc(C(F)F)o2)cn1)c1ccc(F)c(Cl)c1` [Compound 11501, N-(3-chloro-4-fluorophenyl)-N-((5-(5-(difluoromethyl)-1,3,4-oxadiazol-2-yl)pyridin-2-yl)methyl)-1-(oxetan-3-yl)piperidine-4-sulfonamide]: the half-inhibitory concentration (IC50) on human recombinant HDAC1 was 56.7 µM. For the same compound, at human recombinant HDAC6, the “HDAC6 selectivity (fold)” value is listed as 3779 fold and the IC50 amounted to 0.015 µM.
With `O=S(=O)(C1CCN(C2CCC2)CC1)N(Cc1ccc(-c2nnc(C(F)F)o2)cc1)c1ccccc1` [Compound 11639, 1-cyclobutyl-N-(4-(5-(difluoromethyl)-1,3,4-oxadiazol-2-yl)benzyl)-N-phenylpiperidine-4-sulfonamide], the IC50 was 77.7 µM on human recombinant HDAC1 and 0.042 µM on human recombinant HDAC6. The “HDAC6 selectivity (fold)” value on human recombinant HDAC6 was 1849 fold.
As to `CS(=O)(=O)N(Cc1ccc(-c2nnc(C(F)(F)F)o2)cc1)c1ccccc1` [Compound 11167, N-phenyl-N-(4-(5-(trifluoromethyl)-1,3,4-oxadiazol-2-yl)benzyl)methanesulfonamide], the IC50 on human recombinant HDAC1 came out at 34.2 µM; on human recombinant HDAC6, 0.038 µM. On human recombinant HDAC6, the “HDAC6 selectivity (fold)” value was 900 fold.
As to `CN1CC(N2CCC(S(=O)(=O)N(Cc3ccc(-c4nnc(C(F)F)o4)cc3F)c3ccc(F)c(Cl)c3)CC2)C1` [Compound 11451, N-(3-chloro-4-fluorophenyl)-N-(4-(5-(difluoromethyl)-1,3,4-oxadiazol-2-yl)-2-fluorobenzyl)-1-(1-methylazetidin-3-yl)piperidine-4-sulfonamide], the concentration for half-maximal inhibition (IC50) at human recombinant HDAC1 stood at 27.2 µM. On human recombinant HDAC6, the “HDAC6 selectivity (fold)” value is reported as 3018 fold and the IC50 was found to be 0.009 µM.
As for `CCS(=O)(=O)N(Cc1ccc(-c2nnc(C(F)(F)F)o2)cn1)c1ccccc1` [Compound 11430, N-phenyl-N-((5-(5-(trifluoromethyl)-1,3,4-oxadiazol-2-yl)pyridin-2-yl)methyl)ethanesulfonamide], the IC50 at human recombinant HDAC1 stood at 22.2 µM. Further, at human recombinant HDAC6, the “HDAC6 selectivity (fold)” value came out at 529 fold and the IC50 was found to be 0.042 µM.
`CCS(=O)(=O)N(Cc1ccc(-c2nnc(C(F)F)o2)cn1)c1cc(C)cc(Cl)c1` [Compound 11508, N-(3-chloro-5-methylphenyl)-N-((5-(5-(difluoromethyl)-1,3,4-oxadiazol-2-yl)pyridin-2-yl)methyl)ethanesulfonamide]: at human recombinant HDAC1, the IC50 is 49.6 µM. For the same compound, on human recombinant HDAC6, the “HDAC6 selectivity (fold)” value is 2155 fold and the IC50 turned out to be 0.023 µM.
The like results for `O=S(=O)(CCCN1CCCC1)N(Cc1ccc(-c2nnc(C(F)F)o2)cn1)c1ccccc1` [Compound 11710, N-((5-(5-(difluoromethyl)-1,3,4-oxadiazol-2-yl)pyridin-2-yl)methyl)-N-phenyl-3-(pyrrolidin-1-yl)propane-1-sulfonamide] were, in that order, 29.4 µM, 578 fold and 0.0509 µM.
For `O=S(=O)(CCN1CCN(CCCO)CC1)N(Cc1ccc(-c2nnc(C(F)F)o2)cc1)c1ccccc1` [Compound 11679, N-(4-(5-(difluoromethyl)-1,3,4-oxadiazol-2-yl)benzyl)-2-(4-(3-hydroxypropyl)piperazin-1-yl)-N-phenylethane-1-sulfonamide], on human recombinant HDAC1, the IC50 worked out at 61.3 µM. For the same compound, at human recombinant HDAC6, the “HDAC6 selectivity (fold)” value stood at 2666 fold and the IC50 was 0.023 µM.
As to `Cc1cccc(N(Cc2ccc(-c3nnc(C(F)(F)F)o3)cc2F)S(C)(=O)=O)c1` [Compound 11177, N-(2-fluoro-4-(5-(trifluoromethyl)-1,3,4-oxadiazol-2-yl)benzyl)-N-(m-tolyl)methanesulfonamide], the half-maximal inhibitory concentration (IC50) at human recombinant HDAC1 was 18.9 µM. Moreover, at human recombinant HDAC6, the “HDAC6 selectivity (fold)” value is 332 fold and the IC50 was found to be 0.057 µM.
As for `C[C@@H]1CN(CCS(=O)(=O)N(Cc2ccc(-c3nnc(C(F)F)o3)cc2)c2ccccc2)C[C@H](C)N1C` [Compound 11646, N-(4-(5-(difluoromethyl)-1,3,4-oxadiazol-2-yl)benzyl)-N-phenyl-2-((3S,5R)-3,4,5-trimethylpiperazin-1-yl)ethane-1-sulfonamide], the IC50 at human recombinant HDAC1 was determined as 109 µM. At human recombinant HDAC6, the “HDAC6 selectivity (fold)” value is given as 7254 fold and the concentration for half-maximal inhibition (IC50) was found to be 0.015 µM.
The like results for `O=S(=O)(C1CCN(C2COC2)CC1)N(Cc1ccc(-c2nnc(C(F)F)o2)cc1)c1ccccc1` [Compound 11680, N-(4-(5-(difluoromethyl)-1,3,4-oxadiazol-2-yl)benzyl)-1-(oxetan-3-yl)-N-phenylpiperidine-4-sulfonamide] were, in that order, 76.4 µM, 2634 fold and 0.029 µM.
